The target in assay [1] is T1, isolated recombinant JAK1 kinase domain (Homo sapiens, UniProt P23458).
T1 construct: The activity of the isolated recombinant JAK1 and JAK2 kinase domain was measured
Description: JAK1 enzyme assay (Caliper LabChip, Ki). It is filed as biochemical. Conditions: recombinant JAK1 kinase domain, 25 μM ATP. As to the method:
(§1) JAK Enzyme Assays were Carried Out as Follows:
(§2) The activity of the isolated recombinant JAK1 and JAK2 kinase domain was measured by monitoring phosphorylation of a peptide derived from JAK3 (Val-Ala-Leu-Val-Asp-Gly-Tyr-Phe-Arg-Leu-Thr-Thr, fluorescently labeled on the N-terminus with 5-carboxyfluorescein) using the Caliper LabChip® technology (Caliper Life Sciences, Hopkinton, Mass.). […] Reactions were incubated at 22° C. in 384-well polypropylene microtiter plates for 30 minutes and then stopped by addition of 25 μL of an EDTA containing solution (100 mM HEPES buffer (pH 7.2), 0.015% Brij-35, 150 mM EDTA), resulting in a final EDTA concentration of 50 mM. After termination of the kinase reaction, the proportion of phosphorylated product was determined as a fraction of total peptide substrate using the Caliper LabChip® 3000 according to the manufacturer's specifications. Ki values were then determined using the Morrison tight binding model (Morrison, J. F., Biochim. Biophys. Acta. 185:269-296 (1969); William, J. W. and Morrison, J. F., Meth. Enzymol., 63:437-467 (1979)) modified for ATP-competitive inhibition [Ki=Ki,app/(1+[ATP]/Km,app)].

In assay [2] the target is T2, isolated recombinant JAK2 kinase domain (Homo sapiens, UniProt O60674).
T2 construct: The activity of the isolated recombinant JAK1 and JAK2 kinase domain was measured
Put plainly: JAK2 enzyme assay (Caliper LabChip, Ki). Format: biochemical. Conditions: 25 μM ATP. As to the method: as §1, §2

Assay [3] concerns JAK1-dependent STAT6 phosphorylation downstream of IL-13 stimulation in BEAS-2B human bronchial epithelial cells. Description: JAK1 pathway assay in BEAS-2B cells (IL-13 stimulated STAT6 phosphorylation, MSD). Format: cell-based. Conditions: read-out: P-STAT6 BEAS2B + IL13 IC50. As to the method: JAK1 Pathway Assay in Cell Lines was Carried Out as Follows:
Inhibitor potency (EC50) was determined in cell-based assays designed to measure JAK1 dependent STAT phosphorylation. As noted above, inhibition of IL-4, IL-13, and IL-9 signaling by blocking the Jak/Stat signaling pathway can alleviate asthmatic symptoms in pre-clinical lung inflammation models (Mathew et al., 2001, J Exp Med 193(9): 1087-1096; Kudlacz et. al., 2008, Eur J. Pharmacol 582(1-3): 154-161).
In one assay approach, TF-1 human erythroleukemia cells obtained from the American Type Culture Collection (ATCC; Manassas, Va.) were used to measure JAK1-dependent STAT6 phosphorylation downstream of IL-13 stimulation. Prior to use in the assays, TF-1 cells were starved of GM-CSF overnight in OptiMEM medium (Life Technologies, Grand Island, N.Y.) supplemented with 0.5% charcoal/dextran stripped fetal bovine serum (FBS), 0.1 mM non-essential amino acids (NEAA), and 1 mM sodium pyruvate. The assays were run in 384-well plates in serum-free OptiMEM medium using 300,000 cells per well. In a second assay approach, BEAS-2B human bronchial epithelial cells obtained from ATCC were plated at 100,000 cells per well of a 96-well plate one day prior to the experiment. The BEAS-2B assay was run in complete growth medium (bronchial epithelial basal medium plus bulletkit; Lonza; Basel, Switzerland).
Test compounds were serially diluted 1:2 in DMSO and then diluted 1:50 in medium just before use. Diluted compounds were added to the cells, for a final DMSO concentration of 0.2%, and incubated for 30 min (for the TF-1 assay) or 1 hr (for the BEAS-2B assay) at 37° C. Then, cells were stimulated with human recombinant cytokine at their respective EC90 concentrations, as previously determined for each individual lot. Cells were stimulated with IL-13 (R&D Systems, Minneapolis, Minn.) for 15 min at 37° C. The TF-1 cell reactions were stopped by the direct addition of 10× lysis buffer (Cell Signaling Technologies, Danvers, Mass.), whereas the BEAS-2B cell incubations were halted by the removal of medium and addition of 1× lysis buffer. The resultant samples were frozen in the plates at −80° C. Compound mediated inhibition of STAT6 phosphorylation was measured in the cell lysates using MesoScale Discovery (MSD) technology (Gaithersburg, Md.). EC50 values were determined as the concentration of compound required for 50% inhibition of STAT phosphorylation relative to that measured for the DMSO control.

The pKi is −log10 of the Ki, conventionally taken in molar units. One may read the pIC50 as the negative decadic logarithm of the IC50, by convention in mol/L.

pIC50, pKi: −log10 of the molar value.

T2 sequence (O60674 849-1124 limits assumed): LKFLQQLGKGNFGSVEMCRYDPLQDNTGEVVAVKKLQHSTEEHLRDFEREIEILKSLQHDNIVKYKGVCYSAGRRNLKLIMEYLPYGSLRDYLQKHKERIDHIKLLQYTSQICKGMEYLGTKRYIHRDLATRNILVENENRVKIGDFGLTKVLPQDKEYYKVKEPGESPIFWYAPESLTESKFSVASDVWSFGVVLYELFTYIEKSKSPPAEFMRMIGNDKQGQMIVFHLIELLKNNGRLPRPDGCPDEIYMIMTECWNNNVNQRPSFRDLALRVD
T1 sequence (P23458 875-1153 limits assumed): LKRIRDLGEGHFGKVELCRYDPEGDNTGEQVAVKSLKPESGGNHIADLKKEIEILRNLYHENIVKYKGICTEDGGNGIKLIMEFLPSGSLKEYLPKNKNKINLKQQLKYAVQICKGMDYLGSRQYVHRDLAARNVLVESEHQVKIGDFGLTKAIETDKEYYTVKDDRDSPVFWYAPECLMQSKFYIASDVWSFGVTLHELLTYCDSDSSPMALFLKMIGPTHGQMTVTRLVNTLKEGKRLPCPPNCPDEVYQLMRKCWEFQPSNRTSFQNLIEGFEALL

Turning to `CSc1ccc(OC(F)F)c(-c2nn(CC(=O)N3CCC(N4CCCC(C#N)C4)CC3)cc2NC(=O)c2cnn3cccnc23)c1` (stereo not drawn) [Example 31, N-[1-[2-[4-(3-cyano-1-piperidyl)-1-piperidyl]-2-oxo-ethyl]-3-[2-(difluoromethoxy)-5-methylsulfanyl-phenyl]pyrazol-4-yl]pyrazolo[1,5-a]pyrimidine-3-carboxamide], the pKi in assay [1] was 9.72; in assay [2], 9.60. In addition, the pIC50 in assay [3] was 8.08.

Turning to `CSc1ccc(OC(F)F)c(-c2nn(CC(=O)N3CCC(N4CCC(C#N)C4)CC3)cc2NC(=O)c2cnn3cccnc23)c1` (stereo not drawn) [Example 32, N-[1-[2-[4-(3-cyanopyrrolidin-1-yl)-1-piperidyl]-2-oxo-ethyl]-3-[2-(difluoromethoxy)-5-methylsulfanyl-phenyl]pyrazol-4-yl]pyrazolo[1,5-a]pyrimidine-3-carboxamide], the pKi is 9.64 in assay [1] and 9.48 in assay [2]. For the same molecule, in assay [3], the pIC50 was 7.96.

In the case of `CSc1ccc(OC(F)F)c(-c2nn(CC(=O)N3CCN(CC4CCN(CC(=O)N(C)C)CC4)CC3)cc2NC(=O)c2cnn3cccnc23)c1` [Example 33, N-[3-[2-(difluoromethoxy)-5-methylsulfanyl-phenyl]-1-[2-[4-[[1-[2-(dimethylamino)-2-oxo-ethyl]-4-piperidyl]methyl]piperazin-1-yl]-2-oxo-ethyl]pyrazol-4-yl]pyrazolo[1,5-a]pyrimidine-3-carboxamide], the pKi in assay [1] is 9.42; in assay [2] it was 9.14. Further, the pIC50 in assay [3] was 7.46.

`CSc1ccc(OC(F)F)c(-c2nn(CC(=O)N3CC4CCN(C)C4C3)cc2NC(=O)c2cnn3cccnc23)c1` (stereo not drawn) [Example 34, N-[3-[2-(difluoromethoxy)-5-methylsulfanyl-phenyl]-1-[2-(1-methyl-2,3,3a,4,6,6a-hexahydropyrrolo[2,3-c]pyrrol-5-yl)-2-oxo-ethyl]pyrazol-4-yl]pyrazolo[1,5-a]pyrimidine-3-carboxamide]: the pKi in assay [1] is 9.55; in assay [2], 9.52. For the same molecule, the pIC50 in assay [3] is 8.28.

In the case of `CSc1ccc(OC(F)F)c(-c2nn(CC(=O)N3CC4CCCNC4C3)cc2NC(=O)c2cnn3cccnc23)c1` (stereo not drawn) [Example 35, N-[1-[2-(1,2,3,4,4a,5,7,7a-octahydropyrrolo[3,4-b]pyridin-6-yl)-2-oxo-ethyl]-3-[2-(difluoromethoxy)-5-methylsulfanyl-phenyl]pyrazol-4-yl]pyrazolo[1,5-a]pyrimidine-3-carboxamide], the pKi in assay [1] was 9.41; in assay [2], 9.40. Further, the pIC50 in assay [3] is 7.72.

Consider `CSc1ccc(OC(F)F)c(-c2nn(CCNC3COC3)cc2NC(=O)c2cnn3cccnc23)c1` [Example 36, N-[3-[2-(difluoromethoxy)-5-methylsulfanyl-phenyl]-1-[2-(oxetan-3-ylamino)ethyl]pyrazol-4-yl]pyrazolo[1,5-a]pyrimidine-3-carboxamide], for which the values for the pKi in assay [1] and in assay [2] were 9.44 and 9.54, respectively. In addition, the pIC50 in assay [3] was 8.01.

Regarding `CSc1ccc(OC(F)F)c(-c2nn(C[C@H]3CCCN3C)cc2NC(=O)c2cnn3cccnc23)c1` [Example 37, N-[3-[2-(difluoromethoxy)-5-methylsulfanyl-phenyl]-1-[[(2R)-1-methylpyrrolidin-2-yl]methyl]pyrazol-4-yl]pyrazolo[1,5-a]pyrimidine-3-carboxamide], the values for the negative logarithm of the Ki (pKi) in assay [1] and in assay [2] were 9.66 and 9.32, respectively. Further, the pIC50 in assay [3] is 8.00.

On to `CSc1ccc(OC(F)F)c(-c2nn(CCN[C@@H]3CCCOC3)cc2NC(=O)c2cnn3cccnc23)c1` [Example 38, N-[3-[2-(difluoromethoxy)-5-methylsulfanyl-phenyl]-1-[2-[[(3R)-tetrahydropyran-3-yl]amino]ethyl]pyrazol-4-yl]pyrazolo[1,5-a]pyrimidine-3-carboxamide], for which the pKi is 9.64 in assay [1] and 9.72 in assay [2]. Besides, in assay [3], the pIC50 is 7.70.

`CSc1ccc(OC(F)F)c(-c2nn(CC(=O)N3CC4CCCN(C)C4C3)cc2NC(=O)c2cnn3cccnc23)c1` (stereo not drawn) [Example 39, N-[3-[2-(difluoromethoxy)-5-methylsulfanyl-phenyl]-1-[2-(1-methyl-3,4,4a,5,7,7a-hexahydro-2H-pyrrolo[3,4-b]pyridin-6-yl)-2-oxo-ethyl]pyrazol-4-yl]pyrazolo[1,5-a]pyrimidine-3-carboxamide]: the figures for the pKi in assay [1] and in assay [2] were 9.52 and 9.48, respectively. In addition, in assay [3], the pIC50 was 7.72.

In the case of `CSc1ccc(OC(F)F)c(-c2nn(CCN[C@H]3C[C@H](O)C3)cc2NC(=O)c2cnn3cccnc23)c1` [Example 40], the pKi in assay [1] is 9.55; in assay [2], 9.60. Further, in assay [3], the pIC50 is 8.02.

Turning to `CSc1ccc(OC(F)F)c(-c2nn(CC(=O)N3CCC(NCC4(C#N)CC4)CC3)cc2NC(=O)c2cnn3cccnc23)c1` [Example 41, N-[1-[2-[4-[(1-cyanocyclopropyl)methylamino]-1-piperidyl]-2-oxo-ethyl]-3-[2-(difluoromethoxy)-5-methylsulfanyl-phenyl]pyrazol-4-yl]pyrazolo[1,5-a]pyrimidine-3-carboxamide], the pKi was 9.57 in assay [1] and 9.35 in assay [2]. Further, the pIC50 in assay [3] is 7.70.

For the molecule `CSc1ccc(OC(F)F)c(-c2nn(CC(=O)N3CCC(N(C)CC4(C#N)CC4)CC3)cc2NC(=O)c2cnn3cccnc23)c1` [Example 42, N-[1-[2-[4-[(1-cyanocyclopropyl)methyl-methyl-amino]-1-piperidyl]-2-oxo-ethyl]-3-[2-(difluoromethoxy)-5-methylsulfanyl-phenyl]pyrazol-4-yl]pyrazolo[1,5-a]pyrimidine-3-carboxamide], the pKi in assay [1] is 9.77; in assay [2], 9.59. Further, the pIC50 in assay [3] is 7.89.

`CSc1ccc(OC(F)F)c(-c2nn(CC(=O)N3CCC(CN4CCC[C@H]4C(=O)N(C)C)CC3)cc2NC(=O)c2cnn3cccnc23)c1` [Example 43, N-[3-[2-(difluoromethoxy)-5-methylsulfanyl-phenyl]-1-[2-[4-[[(2S)-2-(dimethylcarbamoyl)pyrrolidin-1-yl]methyl]-1-piperidyl]-2-oxo-ethyl]pyrazol-4-yl]pyrazolo[1,5-a]pyrimidine-3-carboxamide]: the pKi in assay [1] was 9.46; in assay [2], 9.06. Also, the pIC50 in assay [3] is 7.12.

On to `CNC(=O)[C@@H]1CCCN1CC1CCN(C(=O)Cn2cc(NC(=O)c3cnn4cccnc34)c(-c3cc(SC)ccc3OC(F)F)n2)CC1` [Example 44, N-[3-[2-(difluoromethoxy)-5-methylsulfanyl-phenyl]-1-[2-[4-[[(2S)-2-(methylcarbamoyl)pyrrolidin-1-yl]methyl]-1-piperidyl]-2-oxo-ethyl]pyrazol-4-yl]pyrazolo[1,5-a]pyrimidine-3-carboxamide], for which the pKi in assay [1] was 9.42; in assay [2] it was 9.14. In assay [3], the pIC50 is 7.14.

Take `CSc1ccc(OC(F)F)c(-c2nn(CC(=O)N3CCC(N4CCCOCC4)CC3)cc2NC(=O)c2cnn3cccnc23)c1` [Example 45, N-[3-[2-(difluoromethoxy)-5-methylsulfanyl-phenyl]-1-[2-[4-(1,4-oxazepan-4-yl)-1-piperidyl]-2-oxo-ethyl]pyrazol-4-yl]pyrazolo[1,5-a]pyrimidine-3-carboxamide]: the pKi is 9.49 in assay [1] and 9.17 in assay [2]. Further, in assay [3], the pIC50 was 7.36.

Source of the values: patent publication US20180265515A1 (Genentech, Inc., priority 2015, published 2018).
